# From PubChem BioAssay (NCI)
# Several values for one entry are separate records, joined by “and”; a condition that tells them apart may be missing. Equal values may be shown once.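 A five-concentration, 48-hour dose response in 96-well plates underlies each endpoint, interpolated linearly between surrounding concentrations. GI50 is the concentration that inhibits growth by half. At the TGI there is no net growth.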
# How the values were obtained:
# Experiment in all cases: NCI tumour cell line growth inhibition, 48 h
# [1] = tested on: SK-OV-3 ovarian
# [2] = tested on: RXF 393 renal
# [3] = tested on: EKVX NSCLC
# [4] = tested on: KM12 colon
# [5] = tested on: ACHN renal
# [6] = tested on: NCI-H460 lung
# [7] = tested on: HT29 colon
# [8] = tested on: SR leukemia
# [9] = tested on: MDA-MB-435
# [10] = tested on: OVCAR-5 ovarian
# [11] = tested on: UACC-257 melanoma
Structure (SMILES),TGI [1],TGI [2],TGI [3],TGI [4],TGI [5],TGI [6],TGI [7],TGI [8],TGI [9],TGI [10],TGI [11],GI50 [3],GI50 [6],GI50 [9],GI50 [10],GI50 [1],GI50 [4],GI50 [5],GI50 [7]
CN1CC=C(OP(=O)(NCc2ccccc2)N(CCCl)CCCl)CC1 (configuration not stated),> 100 µM,> 100 µM,> 100 µM,> 100 µM,> 100 µM,> 100 µM,> 100 µM,> 100 µM,> 100 µM,> 100 µM,> 100 µM,–,–,–,–,–,–,–,–
COC(=O)/C=C/c1cc(OC)c2c(c1)C(C(=O)OC)C(c1ccc(OC)c(OC)c1)O2 (configuration not stated),> 100 µM,> 100 µM,> 100 µM,> 100 µM,> 100 µM,> 100 µM,> 100 µM,> 100 µM,49 µM,> 100 µM,> 100 µM,39.3 µM and 5.12 µM,48.6 µM and 15.7 µM,19.8 µM,> 100 µM,–,–,–,–
CSc1nc(C)cc(Nc2ccc(O)c(CN3CCCCC3)c2)n1,> 100 µM,> 100 µM,88.7 µM,> 100 µM,> 100 µM,–,60.1 µM,> 100 µM,> 100 µM,> 100 µM,–,–,–,–,–,–,–,–,–
O=C(/C=C/c1ccc(O)c(O)c1)NC(CO)C(=O)O (configuration not stated),> 100 µM,> 100 µM,> 100 µM,> 100 µM,> 100 µM,> 100 µM,> 100 µM,> 100 µM,> 100 µM,> 100 µM,> 100 µM,–,–,–,–,–,–,–,–
Clc1cc(Cl)cc(N2N=C(c3cccc(Nc4ccncc4)c3)CC2c2ccccc2)c1 (configuration not stated),31.9 µM,–,4.23 µM,3.7 µM,3.89 µM,3.37 µM,3.73 µM,–,3.36 µM,8.74 µM,–,1.7 µM,1.8 µM,1.72 µM,2.56 µM,13.1 µM,1.86 µM,1.9 µM,1.8 µM
CCn1c(=O)c2c(=O)[nH][nH]c2c2ccccc21,–,–,> 100 µM,> 100 µM,> 100 µM,> 100 µM,> 100 µM,> 100 µM,> 100 µM,> 100 µM,> 100 µM,–,–,–,–,–,–,–,–
Cc1c(-c2ccccc2)c(-c2ccc(OCCN(C)C)cc2)n2ccccc12,30.2 µM,25.7 µM,31.8 µM,15.1 µM,27.8 µM,7.3 µM,3.46 µM,6.49 µM,11.4 µM,28.8 µM,4.16 µM,–,–,–,–,–,–,–,–
CCCCCCN(C(=O)Oc1ccccc1)C(C#N)c1ccccc1 (configuration not stated),> 100 µM,> 100 µM,> 100 µM,> 100 µM,> 100 µM,–,> 100 µM,> 100 µM,> 100 µM,> 100 µM,> 100 µM,–,–,–,–,–,–,–,–
CC(=O)NNC=N/C(C#N)=C(\N)C#N,> 100 µM,–,> 100 µM,> 100 µM,> 100 µM,> 100 µM,> 100 µM,> 100 µM,> 100 µM,> 100 µM,> 100 µM,–,–,–,–,–,–,–,–
COc1ccc(CCN2CCC(C#N)(c3ccc(OC)c(OC)c3)CC2)cc1OC,> 100 µM,> 100 µM,> 100 µM,> 100 µM,> 100 µM,> 100 µM,> 100 µM,> 100 µM,–,> 100 µM,> 100 µM,–,–,–,–,–,–,–,–
CC1=NC(=Cc2ccc(Cl)cc2)C(=O)N1n1c(-c2ccccc2)nc2ccccc2c1=O,> 100 µM,–,> 100 µM,> 100 µM,46.7 µM,60.7 µM,> 100 µM,> 100 µM,> 100 µM,–,75.5 µM,–,–,–,–,–,–,–,–
Oc1ccccc1C=Nc1ccc(Oc2ccc(Cl)cc2)c(Cl)c1,71.2 µM,–,52 µM,65.1 µM,88.3 µM,54.5 µM,40.1 µM,69.3 µM,> 100 µM,79.5 µM,> 100 µM,–,–,–,–,–,–,–,–
Fc1ccc(C(OCCN2CCC3CCC(C2)N3CCCc2ccccc2)c2ccc(F)cc2)cc1 (configuration not stated),24.8 µM,–,15.2 µM,11.3 µM,18.2 µM,7.51 µM,13.7 µM,–,7.46 µM,20.3 µM,8.93 µM,–,–,–,–,–,–,–,–
COc1ccc2c(c1)c(Cc1c(C)n(C)c3ccc(OC)cc13)c(C)n2C,> 100 µM,> 100 µM,> 100 µM,> 100 µM,> 100 µM,> 100 µM,> 100 µM,> 100 µM,–,> 100 µM,> 100 µM,–,–,–,–,–,–,–,–
C/C(C=O)=N\Nc1cc(C)c2ccccc2n1,45 µM,43.1 µM,33.7 µM,28.5 µM,29.9 µM,–,30.8 µM,4.17 µM,38.1 µM,34.3 µM,36.6 µM,–,–,–,–,–,–,–,–
O=C1/C(=C/c2cccc([N+](=O)[O-])c2)CCCc2ccccc21,63.8 µM,–,32.5 µM,16.5 µM,26.6 µM,34.1 µM,24 µM,11 µM,21.4 µM,27.6 µM,30.2 µM,–,–,–,–,–,–,–,–
N#Cc1c(-c2ccccc2)c(C#N)c(=O)n(NS(=O)(=O)c2ccccc2)c1O,> 100 µM,> 100 µM,> 100 µM,> 100 µM,> 100 µM,> 100 µM,> 100 µM,–,> 100 µM,> 100 µM,> 100 µM,–,–,–,–,–,–,–,–
CN(C(=O)C1=CCCCCC1)c1ccccc1I,> 100 µM,> 100 µM,80.4 µM,93.9 µM,> 100 µM,> 100 µM,–,> 100 µM,> 100 µM,> 100 µM,> 100 µM,–,–,–,–,–,–,–,–
COc1c(O)cc(/C=C/c2cc(O)cc3c2[C@@]2(C(=O)O3)c3c(O)cc(O)cc3OC2c2cccc(O)c2)cc1O (some centres not stated),74.8 µM,> 100 µM,–,> 100 µM,> 100 µM,31.9 µM,81.8 µM,26.5 µM,> 100 µM,–,> 100 µM,–,–,–,–,–,–,–,–
Oc1cn(-c2ccc(Cl)cc2)nc1-c1nnc(Nc2ccccc2)o1,49.4 µM,39.6 µM,72.8 µM,37.2 µM,71.6 µM,39.6 µM,22 µM,–,34.3 µM,> 100 µM,43.5 µM,–,–,–,–,–,–,–,–
CSC1=N/C(=C\c2cccs2)C(=O)N1CN1CCCCC1,> 100 µM,–,> 100 µM,> 100 µM,> 100 µM,–,> 100 µM,> 100 µM,> 100 µM,> 100 µM,–,–,–,–,–,–,–,–,–
